Experimental data: ChEMBL document CHEMBL5050844 (2019)

Experiments:
[1] = Induction of anti-CD3/CD28 antibodies-stimulated human T cell activation at 0.3 uM assessed fold increase in IL-2 secretion measured by ELISA assay; format: functional, T cell line
[2] = target: T1, E3 ubiquitin-protein ligase CBL-B (Homo sapiens, UniProt Q13191); assay: Inhibition of N-terminal Avi-tagged human CBL-B (36 to 427 residues) incubated with 60 nM Src kinase for 1.5 hrs followed by incubation with fluorescently labeled UbcH5B-Ub for 1 hr and measured by TR-FRET assay; format: single protein
T1 sequence (Q13191 whole entry, the tested form may be a part): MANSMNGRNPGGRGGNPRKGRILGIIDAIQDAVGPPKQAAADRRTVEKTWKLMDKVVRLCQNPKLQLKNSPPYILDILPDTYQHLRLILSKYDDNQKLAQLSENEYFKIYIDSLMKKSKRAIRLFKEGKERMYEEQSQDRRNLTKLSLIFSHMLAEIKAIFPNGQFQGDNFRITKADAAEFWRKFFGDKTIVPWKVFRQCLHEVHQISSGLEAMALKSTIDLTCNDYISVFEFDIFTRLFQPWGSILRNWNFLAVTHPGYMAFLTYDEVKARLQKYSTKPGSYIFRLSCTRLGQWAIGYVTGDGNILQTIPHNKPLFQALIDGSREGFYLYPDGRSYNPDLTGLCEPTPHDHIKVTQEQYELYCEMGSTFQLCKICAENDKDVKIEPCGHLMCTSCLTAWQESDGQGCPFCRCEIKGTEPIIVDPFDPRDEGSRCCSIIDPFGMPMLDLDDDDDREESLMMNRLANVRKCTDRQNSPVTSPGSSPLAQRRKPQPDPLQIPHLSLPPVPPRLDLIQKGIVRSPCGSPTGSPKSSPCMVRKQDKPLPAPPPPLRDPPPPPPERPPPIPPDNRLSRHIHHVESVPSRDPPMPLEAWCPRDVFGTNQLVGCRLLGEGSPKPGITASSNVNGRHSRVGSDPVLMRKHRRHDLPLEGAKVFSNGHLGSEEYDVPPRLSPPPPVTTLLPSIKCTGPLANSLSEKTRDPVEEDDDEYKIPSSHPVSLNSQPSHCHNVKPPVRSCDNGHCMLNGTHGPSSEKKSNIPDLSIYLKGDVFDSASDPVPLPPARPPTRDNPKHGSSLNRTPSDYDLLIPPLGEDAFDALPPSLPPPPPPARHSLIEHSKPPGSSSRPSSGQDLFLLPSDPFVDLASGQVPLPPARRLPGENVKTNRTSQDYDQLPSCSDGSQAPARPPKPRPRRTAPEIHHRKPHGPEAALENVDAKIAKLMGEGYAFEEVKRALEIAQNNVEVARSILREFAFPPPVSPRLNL

[3] = Induction of activation of human CD56+ CD3- NK cells co-cultured with human K562 cells in 5:1 ratio and assessed as increase in IFN-gamma secretion at 1 uM measured by ELISA assay; format: functional, Natural killer cell
[4] = Induction of activation of human CD56+ CD3- NK cells co-cultured with human K562 cells in 5:1 ratio and assessed as increase in TNF-alpha secretion at 1 uM measured by ELISA assay; format: functional, Natural killer cell
[5] = Induction of anti-CD3 antibodies-stimulated human CD8+ T cell activation in immunocompetent mouse assessed fold increase in CD25 expression at 90 mg/kg, po administered twice a day; format: functional; note: reference of the scale not given here
[6] = Induction of activation of human CD56+ CD3- NK cells co-cultured with human K562 cells in 5:1 ratio and assessed as increase in IFN-gamma secretion at 10 uM measured by ELISA assay; format: functional, Natural killer cell
[7] = Induction of anti-CD3 antibodies-stimulated human CD8+ T cell activation in immunocompetent mouse assessed fold increase in CD25 expression at 135 mg/kg, po administered twice a day; format: functional; note: reference of the scale not given here
[8] = Induction of anti-CD3/CD28 antibodies-stimulated human T cell activation at 0.3 uM assessed fold increase in CD25 expression measured by ELISA assay; format: functional, T cell line
[9] = Induction of anti-CD3 antibodies-stimulated human T cell activation at 1 uM assessed fold increase in IL-2 secretion measured by ELISA assay; format: functional, T cell line; note: reference of the scale not given here
[10] = Induction of anti-CD3/CD28 antibodies-stimulated human T cell activation at 1 uM assessed fold increase in CD25 expression measured by ELISA assay; format: functional, T cell line
[11] = Induction of activation of human CD56+ CD3- NK cells co-cultured with human K562 cells in 1:1 ratio and assessed as increase in TNF-alpha secretion at 1 uM measured by ELISA assay; format: functional, Natural killer cell
[12] = Induction of activation of human CD56+ CD3- NK cells co-cultured with human K562 cells in 5:1 ratio and assessed as increase in TNF-alpha secretion at 10 uM measured by ELISA assay; format: functional, Natural killer cell
[13] = Induction of anti-CD3 antibodies-stimulated human CD4+ T cell activation in immunocompetent mouse assessed fold increase in CD25 expression at 45 mg/kg, ip administered twice a day; format: functional; note: reference of the scale not given here
[14] = Induction of anti-CD3 antibodies-stimulated human CD4+ T cell activation in immunocompetent mouse assessed fold increase in CD25 expression at 180 mg/kg, po administered twice a day; format: functional; note: reference of the scale not given here
[15] = Induction of anti-CD3 antibodies-stimulated human CD4+ T cell activation in immunocompetent mouse assessed fold increase in CD25 expression at 90 mg/kg, po administered twice a day; format: functional; note: reference of the scale not given here
[16] = Induction of activation of human CD56+ CD3- NK cells co-cultured with human K562 cells in 1:1 ratio and assessed as increase in IFN-gamma secretion at 1 uM measured by ELISA assay; format: functional, Natural killer cell
[17] = Induction of activation of human CD56+ CD3- NK cells co-cultured with human K562 cells in 5:1 ratio and assessed as increase in MIP1beta secretion at 10 uM measured by ELISA assay; format: functional, Natural killer cell
[18] = Induction of anti-CD3 antibodies-stimulated human CD4+ T cell activation in immunocompetent mouse assessed fold increase in CD25 expression at 45 mg/kg, po administered twice a day; format: functional; note: reference of the scale not given here
[19] = target: T1, E3 ubiquitin-protein ligase CBL-B; assay: Binding affinity towards N-terminal biotinylated Avi-tagged human CBL-B (36 to 427 residues) measured by surface plasmon resonance assay
[20] = Induction of anti-CD3 antibodies-stimulated human CD8+ T cell activation in immunocompetent mouse assessed fold increase in CD25 expression at 45 mg/kg, ip administered twice a day; format: functional; note: reference of the scale not given here
[21] = Induction of activation of human CD56+ CD3- NK cells co-cultured with human K562 cells in 1:1 ratio and assessed as increase in MIP1beta secretion at 10 uM measured by ELISA assay; format: functional, Natural killer cell
[22] = Induction of anti-CD3 antibodies-stimulated human T cell activation at 1 uM assessed fold increase in CD25 expression measured by ELISA assay; format: functional, T cell line; note: reference of the scale not given here
[23] = Induction of activation of human CD56+ CD3- NK cells co-cultured with human K562 cells in 1:1 ratio and assessed as increase in TNF-alpha secretion at 10 uM measured by ELISA assay; format: functional, Natural killer cell
[24] = Induction of activation of human CD56+ CD3- NK cells co-cultured with human K562 cells in 1:1 ratio and assessed as increase in IFN-gamma secretion at 10 uM measured by ELISA assay; format: functional, Natural killer cell
[25] = Induction of anti-CD3 antibodies-stimulated human CD8+ T cell activation in immunocompetent mouse assessed fold increase in CD25 expression at 180 mg/kg, po administered twice a day; format: functional; note: reference of the scale not given here
[26] = Induction of anti-CD3/CD28 antibodies-stimulated human T cell activation at 4 uM assessed fold increase in CD25 expression measured by ELISA assay; format: functional, T cell line
[27] = Induction of anti-CD3/CD28 antibodies-stimulated human T cell activation at 1 uM assessed fold increase in IL-2 secretion measured by ELISA assay; format: functional, T cell line
[28] = Induction of activation of human CD56+ CD3- NK cells co-cultured with human K562 cells in 5:1 ratio and assessed as increase in MIP1beta secretion at 1 uM measured by ELISA assay; format: functional, Natural killer cell
[29] = Induction of anti-CD3 antibodies-stimulated human CD4+ T cell activation in immunocompetent mouse assessed fold increase in CD25 expression at 135 mg/kg, po administered twice a day; format: functional; note: reference of the scale not given here
[30] = Induction of anti-CD3 antibodies-stimulated human T cell activation at 8 uM assessed fold increase in IL-2 secretion measured by ELISA assay; format: functional, T cell line; note: reference of the scale not given here
[31] = Induction of anti-CD3 antibodies-stimulated human T cell activation at 8 uM assessed fold increase in CD25 expression measured by ELISA assay; format: functional, T cell line; note: reference of the scale not given here
[32] = Induction of activation of human CD56+ CD3- NK cells co-cultured with human K562 cells in 1:1 ratio and assessed as increase in MIP1beta secretion at 1 uM measured by ELISA assay; format: functional, Natural killer cell
[33] = Induction of anti-CD3/CD28 antibodies-stimulated human T cell activation at 4 uM assessed fold increase in IL-2 secretion measured by ELISA assay; format: functional, T cell line
[34] = Induction of activation of human CD56+ CD3- NK cells co-cultured with human K562 cells in 1:1 ratio and assessed as increase in IFN-gamma secretion at 0.625 uM measured by ELISA assay; format: functional, Natural killer cell
[35] = system: B cell; assay: Induction of anti-IgM-stimulated human CD20+ B cell activation at 10 to 1000 uM assessed as increase in CD69 expression measured as mean fluorescence intensity AUC by flow cytometry analysis; format: functional, cell-based; conditions: dose 10-1000 µM
[36] = Induction of allogenic human T cell activation at 3 uM assessed fold increase in cell proliferation; format: functional, T cell line
[37] = Induction of anti-CD3 antibodies-stimulated human exhausted T cell activation assessed fold increase in IFN-gamma secretion measured by ELISA assay; format: functional, T cell line; note: reference of the scale not given here
[38] = Induction of anti-CD3/CD28 antibodies-stimulated human anergic T cell activation at 1.11 uM assessed fold increase in IFN-gamma secretion measured by ELISA assay; format: functional, T cell line
[39] = Induction of activation of human CD56+ CD3- NK cells co-cultured with human K562 cells in 1:1 ratio and assessed as increase in TNF-alpha secretion at 2.5 uM measured by ELISA assay; format: functional, Natural killer cell
[40] = Induction of anti-CD3 antibodies-stimulated human CD4+ T cell activation in immunocompetent mouse assessed fold increase in CD25 expression at 90 mg/kg, ip administered twice a day; format: functional; note: reference of the scale not given here
[41] = Induction of anti-CD3 antibodies-stimulated human CD8+ T cell activation in immunocompetent mouse assessed fold increase in CD25 expression at 45 mg/kg, po administered twice a day; format: functional; note: reference of the scale not given here
[42] = Induction of anti-CD3 antibodies-stimulated human exhausted CD8+ T cell activation assessed fold increase in CTLA4 expression measured by flow cytometry analysis; format: functional, T cell line; note: reference of the scale not given here
[43] = Induction of allogenic human T cell activation at 10 uM assessed fold increase in cell proliferation; format: functional, T cell line
[44] = Induction of anti-CD3 antibodies-stimulated human CD8+ T cell activation in immunocompetent mouse assessed fold increase in CD25 expression at 90 mg/kg, ip administered thrice a day; format: functional; note: reference of the scale not given here
[45] = Induction of anti-CD3 antibodies-stimulated human exhausted CD4+ T cell activation assessed fold increase in CTLA4 expression measured by flow cytometry analysis; format: functional, T cell line; note: reference of the scale not given here
[46] = Induction of anti-CD3 antibodies-stimulated human exhausted T cell activation assessed fold increase in IL-2 secretion measured by ELISA assay; format: functional, T cell line; note: reference of the scale not given here
[47] = Induction of activation of human CD56+ CD3- NK cells co-cultured with human K562 cells in 1:1 ratio and assessed as increase in IFN-gamma secretion at 2.5 uM measured by ELISA assay; format: functional, Natural killer cell
[48] = Induction of anti-CD3/CD28 antibodies-stimulated human anergic T cell activation at 0.37 uM assessed fold increase in IFN-gamma secretion measured by ELISA assay; format: functional, T cell line
[49] = Induction of activation of human CD56+ CD3- NK cells co-cultured with human K562 cells in 1:1 ratio and assessed as increase in TNF-alpha secretion at 0.625 uM measured by ELISA assay; format: functional, Natural killer cell
[50] = Induction of anti-CD3 antibodies-stimulated human exhausted T cell activation assessed fold increase in GM-CSF secretion measured by ELISA assay; format: functional, T cell line; note: reference of the scale not given here
[51] = Induction of anti-CD3/CD28 antibodies-stimulated human anergic T cell activation at 10 uM assessed fold increase in IFN-gamma secretion measured by ELISA assay; format: functional, T cell line
[52] = Induction of anti-CD3 antibodies-stimulated human CD8+ T cell activation in immunocompetent mouse assessed fold increase in CD25 expression at 90 mg/kg, ip administered twice a day; format: functional; note: reference of the scale not given here

Row | IC50 [2] [nM] | Compound | fold change (FC) [1] | fold change (FC) [3] | fold change (FC) [4] | fold change (FC) [6] | fold change (FC) [7] | fold change (FC) [8] | fold change (FC) [9] | fold change (FC) [10] | fold change (FC) [11] | fold change (FC) [12] | fold change (FC) [14] | fold change (FC) [15] | fold change (FC) [16] | fold change (FC) [17] | fold change (FC) [21] | fold change (FC) [22] | fold change (FC) [23] | fold change (FC) [24] | fold change (FC) [27] | further results
1 | < 100 | C[C@H](Cc1nncn1C)c1cccc(NC(=O)c2cc(C3CC3)cc(C(F)(F)F)n2)c1 | 2.51 | 2.01 | 2.01 | >=5 | 1 | 1.31 | >=0.201 | 1.51 | 2.01 | 2.01 | 1 | 1 | 2.01 | 1.01 | 1.01 | >=1.001 | 1.01 | 2.01 | 5 | fold change (FC) [5]: 1; fold change (FC) [13]: 1.51; fold change (FC) [18]: 1; Kd [19]: < 100 nM; fold change (FC) [20]: 1; fold change (FC) [25]: 1; fold change (FC) [26]: 1.51; fold change (FC) [28]: 1.01; fold change (FC) [29]: 2.01; fold change (FC) [30]: >=0.201; fold change (FC) [31]: >=1.001; fold change (FC) [32]: 1.01; fold change (FC) [33]: >=7.5
2 | < 100 | Cn1cnnc1CC1(c2cccc(NC(=O)c3cc(CN4CCC5(CC5)C4)cc(C4CC4)n3)c2)COC1 | >=7.5 | – | – | – | 1 | 1.31 | >=0.201 | 1.31 | – | – | >2.5 | >2.5 | – | – | – | >=1.001 | >=5 | >=5 | >=7.5 | fold change (FC) [34]: 2.01; AUC [35]: > 1.51; fold change (FC) [36]: >3; fold change (FC) [37]: >1.61; fold change (FC) [38]: >4.01; fold change (FC) [39]: 1.01; fold change (FC) [40]: 1.51; fold change (FC) [41]: 1; fold change (FC) [42]: >1.61; fold change (FC) [43]: >3; fold change (FC) [44]: 1; fold change (FC) [45]: >1.61; fold change (FC) [46]: 2.51; fold change (FC) [47]: >=5; fold change (FC) [48]: >4.01; fold change (FC) [25]: 1.51; fold change (FC) [49]: >=5; fold change (FC) [50]: >1.61; fold change (FC) [51]: >4.01
3 | – | C[C@H](Cc1nncn1C)c1cccc(NC(=O)c2ccnc(C(F)(F)F)n2)c1 | 1.01 | 2.01 | 2.01 | >=5 | – | 1.51 | >=0.201 | >=1.76 | <=1 | >=5 | – | – | 1.01 | 2.01 | 2.01 | 0.801 | 2.01 | 2.01 | 2.51 | fold change (FC) [40]: 1.51; fold change (FC) [26]: >=1.76; fold change (FC) [28]: 1.01; fold change (FC) [30]: >=0.201; fold change (FC) [31]: >=1.001; fold change (FC) [52]: 1; fold change (FC) [32]: 1.01; fold change (FC) [33]: >=7.5
